# Test results: paper PMC6611227 (Frontiers in Microbiology, 2019)
# Biological target: T1, StDHODH (dihydroorotate dehydrogenase) (Solanum tuberosum, UniProt M1BCR0, I273V/I299V/P120T/P359Q)
# T1 construct: gene LOC102578881
# T1 sequence (M1BCR0 70-460 P120T/I273V/I299V/P359Q): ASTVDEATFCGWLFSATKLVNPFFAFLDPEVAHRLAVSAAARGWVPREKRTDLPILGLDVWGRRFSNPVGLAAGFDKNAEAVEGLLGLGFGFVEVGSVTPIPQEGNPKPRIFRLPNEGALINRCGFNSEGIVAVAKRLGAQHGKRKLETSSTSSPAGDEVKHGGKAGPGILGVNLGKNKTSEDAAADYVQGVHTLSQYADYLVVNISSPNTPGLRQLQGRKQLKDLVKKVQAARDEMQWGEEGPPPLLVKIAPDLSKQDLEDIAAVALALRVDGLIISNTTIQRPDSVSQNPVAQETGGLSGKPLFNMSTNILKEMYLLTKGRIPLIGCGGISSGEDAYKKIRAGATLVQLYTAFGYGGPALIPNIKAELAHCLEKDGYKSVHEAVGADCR
# Test: biochemical
# Settings: read-out: Activity % StDHODH
structure (smiles),measurement,value
"COc1c(-c2ccccc2)ccc(NC(=O)C(C#N)=C(C)O)c1Cl [compound 19, N-(3-chloro-2-methoxybiphenyl-4-yl)-2-cyano-3-hydroxybut-2-enamide]",activity at 500 µM,0%
